pIC50: −log10 of the molar value.
What was measured:
[1] = system: récepteur des benzodiazépines; assay: In vivo displacement of tritiated flunitrazepam in mouse brain regions; set-up: species or system souris; settings: for flunitrazépam tritié déplacé: 10 mg/kg; for DE50 (dose effective pour déplacer 50 % du flunitrazépam tritié): s.c.
Description: Ceci est démontré par des tests de déplacement du flunitrazépam tritié par le méthyl β-carbamate invivo.
200 µCi/kg de flunitrazépam tritié sont injectées i.v. chez la souris. Après 10 minutes, une dose connue du méthyl β-carbamate (allant de 2,5 mg/kg jusqu'à 10 mg/kg) est injectée s.c. et 10 minutes plus tard, l'animal est sacrifié. Le cerveau est rapidement disséqué. Le cervelet, le cortex et l'hippocampe sont isolés et broyés séparément et ensuite filtrés. La quantité de radio-activité restant sur le filtre est inversement proportionnelle au pouvoir de déplacement du méthyl β-carbamate.

[2] = system: souris; assay: Conflict test (Skinner box), anxiolytic effect of diazepam in mice; assay type: in vivo
Description: ③. Absence d'effet antagoniste sur les effets anxiolytiques du diazépam : • 9 souris ont été entraînées dans un test de conflit décrit par PRADO et al. (Nature 301, 64-66, 1983). En bref les animaux privés de nourriture sont soumis à des séances quotidiennes de 15 minutes dans une boîte de Skinner. Ces sessions comprennent successivement : 5 mn sans conflit (où la souris reçoit une boulette de nourriture chaque fois qu'elle appuie sur la pédale), 5 mn de conflit (où l'appui sur la pédale entraîne à la fois la délivrance d'une boulette et un choc électrique léger), 5 mn sans conflit. Les performances des souris (nombre d'appuis/mn) baissent durant les phases de conflit.

[3] = system: souris; assay: Antagonism of convulsions induced by méthyl β-carboline in mice; assay type: in vivo; settings: 1 mg/kg s.c. 5 minutes before méthyl β-carboline 1 to 10 mg/kg s.c.
Description: Par contre, cette molécule antagonise les effets convulsivants induits par un agoniste inverse de la méthyl-β-carboline.
100 souris (30 g, ♂) sont traitées par des doses croissantes de méthyl B-carboline de 1 mg à 10 mg/kg s.c. La moitié des souris a été prétraitée par 1 mg/kg de méthyl carbamate s.c. 5 minutes avant l'injection de méthyl β-carboline.

[4] = system: souris; assay: Antagonism of the anticonvulsant action of diazepam (PTZ) in mice; assay type: in vivo; settings: PTZ 70 mg/kg s.c.; diazépam 1 mg/kg s.c. 25 minutes before, carbamate 10 mg/kg 15 minutes before; 80 % of controls convulse
Description: ① Absence d'effets antagonistiques sur l'action anticonvulsivante du diazépam :
20 souris (30 g, ♂) ont été traitées avec 70 mg/kg s.c. de PTZ. Une moitié a servi de contrôle; l'autre moitié a reçu 1 mg/kg s.c. de diazépam 25 minutes avant le PTZ et 10 mg/kg de carbamate 15 minutes avant le PTZ.

[5] = target: récepteur des benzodiazépines; assay: Displacement of 3H-flunitrazepam from its receptor in rat cortex tissue (in vitro); assay type: binding; settings: for pIC50: 3H-flunitrazépam 4 nM, cortex du Rat, 0°, 60 mn, pH 7,4
From the text: Pour déterminer l'activité pharmacologique des molécules de cette invention, leur affinité pour le récepteur des benzodiazépines a d'abord été étudiée. Cette affinité est déterminée par l'aptitude de la molécule à déplacer une benzodiazépine radioactive (le flunitrazépam tritié) de son récepteur.
Ce pouvoir de déplacement de la molécule est indiqué par son IC50, c'est-à-dire la concentration du produit nécessaire pour déplacer 50 % des liaisons spécifiques du ^3H-flunitrazépam avec son récepteur, à partir de tissus préparés du cerveau du Rat.
Pour ces essais in vitro, il s'agit d'incuber à 0° pour 60 mn une suspension de tissus provenant du cortex du Rat (= 10 mg de tissu par échantillon) dans un milieu tamponné (pH 7,4, 0,05 M Tris-HCl) en présence d'une concentration fixe de ^3H-flunitrazépam (= 4 nM, 89 Ci/mmole) et d'une concentration variable du produit (10^-3 à 10^-9 M). La suspension est ensuite filtrée et la radioactivité restant sur le filtre est déterminée par scintillation. L'information obtenuepermet de dessiner une courbe de déplacement contre la concentration du produit et de calculer l'IC50 du produit.

[6] = system: souris; assay: Blockade of diazepam-induced sedation, rotarod in mice; assay type: in vivo; settings: 10 mg/kg s.c.; diazépam 2 mg/kg s.c.
Description: ②. Blocage de la sédation induite par le diazépam :
20 souris (30 g, ♂) ont été entraînées sur le rotarod (bâton de 2,5 cm 0 tournant à 4 rev/mn) pendant 5 minutes. Les souris entraînées seront utilisées si, lors du test précédant l'injection, elles restent 1 minute sans tomber du bâton. Les souris reçoivent toutes 2 mg/kg s.c. de diazépam et sont testées toutes les 10 minutes. Le pourcentage de souris restant 1 minute sur le bâton est indiqué en ordonnée de la figure.

[7] = system: souris; assay: Convulsions induced by pentylenetetrazol (PTZ) in mice; assay type: in vivo; settings: PTZ 70 mg/kg s.c.
Description: 40 souris "Swiss", d, 30 g recoivent 70 mg/kg s.c. de PTZ. Les souris sont divisées en 4 lots : 1 lot contrôle, 1 lot reçoit 10 mg/kg s.c. de méthyl carbamate, 5 minutes avant le PTZ, 1 lot la même dose de méthyl carbamate 15 minutes avant, et le dernier lot une dose de 1 mg/kg de méthyl carbamate 15 minutes avant. 60 % à 80 % des souris présentent des convulsions dans les 4 lots sans différences statistiquement significatives entre les lots.

[8] = system: Babouin photosensible; assay: Photosensitive baboon, intermittent light stimulation (SLI); assay type: in vivo
From the text: Cette molécule appartient à la classe des agonistes inverses. Elle provoque des convulsions. Le modèle utilisé est le Babouin photosensible. Sur ce modèle, l'application de stimulation lumineuse intermittente (SLI) par l'intermédiaire d'une lampe stroboscopique provoque des manifestations épileptiques d'amplitude variable. Suivant l'intensité de leur réponse, les animaux sont classés de 0 à + 4.
2 animaux PP 86 et 88 ont été utilisés. Le 86 est + 3 au bout de 30 secondes de SLI, le 5.5.1983. L'administration de l'éthylamino-3-β-carboline (1 mg/kg) réduit cette latence à 10 secondes, 2 minutes après l'injection. lh30 après l'injection, cette latence est toujours très diminuée (20 secondes). […] Ces résultats sont très différents de ceux de la méthyl-S-carboline dont l'effet convulsivant disparait au bout de 20 minutes chez le Babouin.
Le 88 a montré le même type de résultat. Après 15 secondes de SLI, il est + 3 le 5.5.1983. Après l'administration de 2 mg/kg de N-éthyl carboline, la SLI provoque un stade + 3 au bout de 5 secondes. […] Après 5 heures, la latence est toujours raccourcie (10 secondes).

[9] = system: Babouin photosensible; settings: comparison; cited from earlier work

COC(=O)Nc1cc2c(cn1)[nH]c1ccccc12 [-NHCO2CH3, méthoxycarbonylamino-3-β-carboline]
selectivity between brain regions / receptor sub-classes ([1]; cervelet (BZ1) versus cortex and hippocampe (BZ1 and BZ2), souris): sélectivité pour les récepteurs du cervelet | flunitrazépam tritié déplacé ([1]; cervelet): ~100% | DE50 (dose effective pour déplacer 50 % du flunitrazépam tritié) ([1]; cervelet, souris): 4 mg/kg | flunitrazépam tritié déplacé ([1]; cortex): ~75% | DE50 (dose effective pour déplacer 50 % du flunitrazépam tritié) ([1]; cortex, souris): 5 mg/kg | flunitrazépam tritié déplacé ([1]; hippocampe): ~75% | DE50 (dose effective pour déplacer 50 % du flunitrazépam tritié) ([1]; hippocampe, souris): 6 mg/kg | effect on the anxiolytic effect of diazépam (conflict test) ([2]; given simultaneously with diazepam 5 mg/kg s.c.): ne bloque pas cet effet anxiolytique du diazépam | effect on convulsions induced by méthyl β-carboline [3]: antagonise d'une façon compétitive | convulsions in mice treated with diazépam + méthyl carbamate [4]: aucun phénomène convulsif | pIC50 [5]: 7.15 | IC50 compared with éthylamino-3-β-carboline ([5]; relative to the IC50 of éthylamino-3-β-carboline): presque dix fois plus faible | 3H-flunitrazépam déplacé ([5]; à haute concentration): 80% | effect on the sedative effect of diazépam (rotarod) [6]: antagonise l'effet sédatif du diazépam | activité agonistique sur les convulsions induites par le PTZ [7]: dénuée d'activité agonistique

CN1C(=O)CN=C(c2ccccc2F)c2cc([N+](=O)[O-])ccc21 [Flunitrazepam, reference compound]
pIC50 [5]: 8.40

CC(=O)Nc1cc2c(cn1)[nH]c1ccccc12 [-NHCOCH3, acétylamino-3-β-carboline]
pIC50 [5]: 5.40

O=C(Nc1cc2c(cn1)[nH]c1ccccc12)C(F)(F)F [-NHCOCF3, trifluoroacétylamino-3-β-carboline]
pIC50 [5]: 5.20

O=CNc1cc2c(cn1)[nH]c1ccccc12 [-NHCHO, formylamino-3-β-carboline]
pIC50 [5]: 5.33

CCNc1cc2c(cn1)[nH]c1ccccc12 [-NHCH2CH3, éthylamino-3-β-carboline]
persistence of the effect on latency ([8]; animal 88, 2 mg/kg): persiste une heure | latence du stade + 3 sous SLI ([8]; animal 88, 2 mg/kg (15 secondes before treatment)): 5 secondes | latence du stade + 3 sous SLI ([8]; animal 88, 2 mg/kg, après 5 heures): 10 secondes | spontaneous seizure after injection ([8]; animal PP 86, 1 mg/kg): crise épileptique tonico-clonique spontanée | latence du stade + 3 sous SLI ([8]; animal PP 86, 1 mg/kg, 1h30 après l'injection): 20 secondes | latence du stade + 3 sous SLI ([8]; animal PP 86, 1 mg/kg, 2 minutes après l'injection (30 secondes before treatment)): 10 secondes | pIC50 [5]: 6.34

COC(=O)c1cc2c(cn1)[nH]c1ccccc12 [méthyl-S-carboline, méthyl β-carbolyne-3-carboxylate]
time after which the convulsant effect disappears [9]: 20 min

CCOC(=O)Nc1cc2c(cn1)[nH]c1ccccc12 [-NHCO2CH2CH3, éthoxycarbonylamino-3-β-carboline]
pIC50 [5]: 7.10

CS(=O)(=O)Nc1cc2c(cn1)[nH]c1ccccc12 [-NHSO2CH3, méthylsulfonylamino-3-β-carboline]
pIC50 [5]: 4.21

CN1C(=O)CN=C(c2ccccc2)c2cc(Cl)ccc21 [diazepam, reference compound]
effect on the fall of lever presses during conflict ([2]; 5 mg/kg s.c.): s'oppose à cette baisse des appuis

Nc1cc2c(cn1)[nH]c1ccccc12 [-NH2, amino-3-β-carboline]
pIC50 [5]: 4.60

CCOC(=O)c1cc2c(cn1)[nH]c1ccccc12 [-CO2CH2CH3, ester éthyliquede l'acide β-carboline-3-carboxylique, reference compound]
pIC50 [5]: 8.70

Reference: EP0148660A1, “Beta-carboline derivatives, process for their preparation and medicaments containing them” (Etablissement Public dit: CENTRE NATIONAL DE LA RECHERCHE …, priority 1983, dated 1985)
